SMILES strings stand for the structures.

This assay deals with T1, voltage-dependent T-type calcium channel subunit alpha-1G (Cav3.2) (Homo sapiens, UniProt O95180).
T1 construct: expressed in transfected cells; host or cells: HEK293
The assay can be described thus: FLIPR calcium flux assay, HEK293 cells recombinantly expressing Cav3.2. It is filed as cell-based. The note with it: Cav3.2-channel, Fluo-4-AM, 3 min incubation, stimulation with 10 mM CaCl2. Put shortly: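 HEK293 cells stably expressing human Cav3.2 were loaded with Fluo-4-AM. Compounds diluted in TEAC buffer (pH 7.2) were preincubated for 3 min, then Ca2+ entry was triggered by 10 mM final CaCl2. Inhibition curves were fitted sigmoidally to the area under the fluorescence trace.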

T1 sequence (O95180 whole entry): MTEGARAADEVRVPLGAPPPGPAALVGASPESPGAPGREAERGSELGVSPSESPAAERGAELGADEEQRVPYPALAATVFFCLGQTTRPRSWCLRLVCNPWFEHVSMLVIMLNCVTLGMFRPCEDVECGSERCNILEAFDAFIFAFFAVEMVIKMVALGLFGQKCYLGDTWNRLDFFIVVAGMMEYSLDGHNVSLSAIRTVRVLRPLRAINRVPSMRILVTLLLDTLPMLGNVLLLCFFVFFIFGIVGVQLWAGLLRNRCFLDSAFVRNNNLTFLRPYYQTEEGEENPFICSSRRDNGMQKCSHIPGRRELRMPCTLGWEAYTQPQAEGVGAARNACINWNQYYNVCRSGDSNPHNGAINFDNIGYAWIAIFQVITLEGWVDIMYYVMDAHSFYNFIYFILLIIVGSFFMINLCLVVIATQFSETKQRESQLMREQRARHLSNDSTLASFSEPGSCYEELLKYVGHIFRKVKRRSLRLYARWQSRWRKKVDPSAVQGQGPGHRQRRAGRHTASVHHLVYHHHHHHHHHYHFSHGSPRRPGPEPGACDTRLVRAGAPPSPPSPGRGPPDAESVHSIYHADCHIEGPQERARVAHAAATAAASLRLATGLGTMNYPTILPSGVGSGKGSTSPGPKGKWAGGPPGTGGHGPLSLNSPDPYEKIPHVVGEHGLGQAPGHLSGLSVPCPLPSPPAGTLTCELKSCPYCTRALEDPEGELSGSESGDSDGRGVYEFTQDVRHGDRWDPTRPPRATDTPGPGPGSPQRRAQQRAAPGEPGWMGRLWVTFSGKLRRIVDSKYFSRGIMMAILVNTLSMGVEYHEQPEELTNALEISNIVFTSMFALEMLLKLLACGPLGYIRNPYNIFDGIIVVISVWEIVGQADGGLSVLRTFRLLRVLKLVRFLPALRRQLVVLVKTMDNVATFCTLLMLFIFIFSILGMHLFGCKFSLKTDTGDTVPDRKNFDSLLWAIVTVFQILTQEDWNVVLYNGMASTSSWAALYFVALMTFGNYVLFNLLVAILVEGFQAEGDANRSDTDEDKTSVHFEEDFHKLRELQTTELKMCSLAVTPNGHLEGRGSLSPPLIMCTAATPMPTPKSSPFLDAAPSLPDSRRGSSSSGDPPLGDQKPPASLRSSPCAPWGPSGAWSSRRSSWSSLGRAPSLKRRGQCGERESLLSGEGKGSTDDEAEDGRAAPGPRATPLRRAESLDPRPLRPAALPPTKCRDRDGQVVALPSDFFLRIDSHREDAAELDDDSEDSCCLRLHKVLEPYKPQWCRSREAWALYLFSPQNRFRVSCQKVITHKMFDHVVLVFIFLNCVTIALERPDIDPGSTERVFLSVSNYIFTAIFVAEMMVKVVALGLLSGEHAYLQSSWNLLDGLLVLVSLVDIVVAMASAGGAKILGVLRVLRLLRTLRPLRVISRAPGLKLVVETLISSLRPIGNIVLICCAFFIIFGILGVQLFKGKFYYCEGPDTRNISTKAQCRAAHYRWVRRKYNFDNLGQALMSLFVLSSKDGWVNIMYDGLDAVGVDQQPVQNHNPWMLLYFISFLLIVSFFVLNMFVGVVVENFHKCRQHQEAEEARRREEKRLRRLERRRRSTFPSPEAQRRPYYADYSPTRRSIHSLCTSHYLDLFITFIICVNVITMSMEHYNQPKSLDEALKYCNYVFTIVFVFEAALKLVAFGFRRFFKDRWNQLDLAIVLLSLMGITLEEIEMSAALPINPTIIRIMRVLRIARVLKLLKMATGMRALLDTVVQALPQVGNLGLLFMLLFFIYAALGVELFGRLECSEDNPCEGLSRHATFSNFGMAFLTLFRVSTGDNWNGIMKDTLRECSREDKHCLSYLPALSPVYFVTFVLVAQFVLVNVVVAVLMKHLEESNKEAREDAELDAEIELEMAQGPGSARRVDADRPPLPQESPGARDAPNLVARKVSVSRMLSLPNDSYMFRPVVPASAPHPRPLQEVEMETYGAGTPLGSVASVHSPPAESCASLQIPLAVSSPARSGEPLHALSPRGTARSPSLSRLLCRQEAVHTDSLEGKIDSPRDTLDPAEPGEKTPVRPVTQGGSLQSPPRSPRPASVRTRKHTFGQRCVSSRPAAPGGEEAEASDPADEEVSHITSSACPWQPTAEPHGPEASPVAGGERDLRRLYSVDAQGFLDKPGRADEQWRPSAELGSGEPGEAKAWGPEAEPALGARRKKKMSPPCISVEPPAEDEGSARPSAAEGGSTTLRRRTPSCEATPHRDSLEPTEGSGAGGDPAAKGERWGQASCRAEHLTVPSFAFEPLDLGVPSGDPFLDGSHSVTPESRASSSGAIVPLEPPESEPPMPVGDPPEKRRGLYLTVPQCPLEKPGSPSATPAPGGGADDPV

With `O=C(Cc1ccc(-c2ncccn2)cc1)Nc1ccn(Cc2ccc(F)cc2)n1` [Example 85, N-[1-(4-Fluoro-benzyl)-1H-pyrazol-3-yl]-2-(4-pyrimidin-2-yl-phenyl)-acetamide], the IC50 was found to be 0.301 µM.

As to `O=C(Cc1ccc(-c2cncnc2)cc1)Nc1ccn(Cc2ccc(F)cc2)n1` [Example 86, N-[1-(4-Fluoro-benzyl)-1H-pyrazol-3-yl]-2-(4-pyrimidin-5-yl-phenyl)-acetamide], the half-maximal inhibitory concentration (IC50) turned out to be 0.14 µM. The result for `O=C(Cc1ccc(-c2ccncn2)cc1)Nc1ccn(Cc2ccc(F)cc2)n1` [Example 87, N-[1-(4-Fluoro-benzyl)-1H-pyrazol-3-yl]-2-(4-pyrimidin-4-yl-phenyl)-acetamide] reads 0.157 µM; that for `CC(C)c1ccc(CC(=O)Nc2ccn(Cc3ccc(F)c(F)c3)n2)cn1` [Example 88, N-[1-(3,4-Difluoro-benzyl)-1H-pyrazol-3-yl]-2-(6-isopropyl-pyridin-3-yl)-acetamide], 0.109 µM; that for `N#Cc1ccc(Cn2ccc(NC(=O)Cc3ccc(N4CC[C@@H](F)C4)cc3)n2)nc1` [Example 89, N-[1-(5-Cyano-pyridin-2-ylmethyl)-1H-pyrazol-3-yl]-2-[4-((R)-3-fluoro-pyrrolidin-1-yl)-phenyl]-acetamide], 0.061 µM.

Consider `N#Cc1ccc(Cn2ccc(NC(=O)Cc3ccc(N4CC[C@H](F)C4)cc3)n2)nc1` [Example 90, N-[1-(5-Cyano-pyridin-2-ylmethyl)-1H-pyrazol-3-yl]-2-[4-((S)-3-fluoro-pyrrolidin-1-yl)-phenyl]-acetamide], for which the half-maximal inhibitory concentration (IC50) came out at 0.075 µM. For the molecule `N#Cc1ccc(Cn2ccc(NC(=O)Cc3ccc(N4CCC(F)(F)C4)cc3)n2)nc1` [Example 91, N-[1-(5-Cyano-pyridin-2-ylmethyl)-1H-pyrazol-3-yl]-2-[4-(3,3-difluoro-pyrrolidin-1-yl)-phenyl]-acetamide], the IC50 amounted to 0.023 µM. The result for `Cc1cncnc1-c1ccc(CC(=O)Nc2ccn(Cc3ccc(F)cc3)n2)cc1` [Example 92, N-[1-(4-Fluoro-benzyl)-1H-pyrazol-3-yl]-2-[4-(5-methyl-pyrimidin-4-yl)-phenyl]-acetamide] reads 0.048 µM; that for `CC(C)c1ccc(CC(=O)Nc2ccn(Cc3ccc(OCC(F)(F)F)cn3)n2)cc1` [Example 93, 2-(4-Isopropyl-phenyl)-N-{1-[5-(2,2,2-trifluoro-ethoxy)-pyridin-2-ylmethyl]-1H-pyrazol-3-yl}-acetamide], 0.039 µM; that for `CC(C)c1ccc(CC(=O)Nc2ccn(Cc3ccc(Br)cn3)n2)cc1` [Example 94, N-[1-(5-Bromo-pyridin-2-ylmethyl)-1H-pyrazol-3-yl]-2-(4-isopropyl-phenyl)-acetamide], 0.0083 µM. Regarding `O=C(Cc1cnc(OCC(F)(F)F)c(F)c1)Nc1ccn(Cc2ccc(F)c(F)c2)n1` [Example 95, N-[1-(3,4-Difluoro-benzyl)-1H-pyrazol-3-yl]-2-[5-fluoro-6-(2,2,2-trifluoro-ethoxy)-pyridin-3-yl]-acetamide], the 50% inhibitory concentration (IC50) was 0.099 µM.

`CC(C)c1ccc(CC(=O)Nc2ccn(Cc3ccc(C4CC4)cn3)n2)cc1` [Example 96, N-[1-(5-Cyclopropyl-pyridin-2-ylmethyl)-1H-pyrazol-3-yl]-2-(4-isopropyl-phenyl)-acetamide]: the IC50 worked out at 0.053 µM. Regarding `Cc1ccc(Cn2ccc(NC(=O)Cc3ccc(C(C)C)cc3)n2)nc1` [Example 97, 2-(4-Isopropyl-phenyl)-N-[1-(5-methyl-pyridin-2-ylmethyl)-1H-pyrazol-3-yl]-acetamide], the IC50 was 0.031 µM. As for `CC(C)Cc1ccc(Cn2ccc(NC(=O)Cc3ccc(C(C)C)cc3)n2)nc1` [Example 98, N-[1-(5-Isobutyl-pyridin-2-ylmethyl)-1H-pyrazol-3-yl]-2-(4-isopropyl-phenyl)-acetamide], the IC50 stood at 0.038 µM. Take `O=C(Cc1ccc(N2CCC2)nc1)Nc1ccn(Cc2ccc(F)c(F)c2)n1` [Example 99, 2-(6-Azetidin-1-yl-pyridin-3-yl)-N-[1-(3,4-difluoro-benzyl)-1H-pyrazol-3-yl]-acetamide]: the 50% inhibitory concentration (IC50) was determined as 0.048 µM. Take `CCc1ccc(Cn2ccc(NC(=O)Cc3ccc(C(C)C)cc3)n2)nc1` [Example 100, N-[1-(5-Ethyl-pyridin-2-ylmethyl)-1H-pyrazol-3-yl]-2-(4-isopropyl-phenyl)-acetamide]: the IC50 came out at 0.06 µM. Take `COc1ccc(Cn2ccc(NC(=O)Cc3ccc(N4CCC4)nc3)n2)cc1` [Example 101, 2-(6-Azetidin-1-yl-pyridin-3-yl)-N-[1-(4-methoxy-benzyl)-1H-pyrazol-3-yl]-acetamide]: the half-inhibitory concentration (IC50) came out at 0.925 µM.

`N#Cc1ccc(Cn2ccc(NC(=O)Cc3ccc(N4CCC4)nc3)n2)nc1` [Example 102, 2-(6-Azetidin-1-yl-pyridin-3-yl)-N-[1-(5-cyano-pyridin-2-ylmethyl)-1H-pyrazol-3-yl]-acetamide]: the half-inhibitory concentration (IC50) amounted to 7.05 µM. Regarding `O=C(Cc1ccc(N2CCC2)nc1)Nc1ccn(Cc2ccc(F)cc2)n1` [Example 103, 2-(6-Azetidin-1-yl-pyridin-3-yl)-N-[1-(4-fluoro-benzyl)-1H-pyrazol-3-yl]-acetamide], the IC50 worked out at 0.145 µM.

For `COCCOc1ccc(Cn2ccc(NC(=O)Cc3ccc(C(C)C)cc3)n2)nc1` [Example 104, 2-(4-Isopropyl-phenyl)-N-{1-[5-(2-methoxy-ethoxy)-pyridin-2-ylmethyl]-1H-pyrazol-3-yl}-acetamide], the IC50 was found to be 4.52 µM. Regarding `CC(C)Oc1ccc(Cn2ccc(NC(=O)Cc3ccc(C(C)C)cc3)n2)nc1` [Example 105, N-[1-(5-Isopropoxy-pyridin-2-ylmethyl)-1H-pyrazol-3-yl]-2-(4-isopropyl-phenyl)-acetamide], the IC50 was 0.031 µM. Turning to `CC(C)c1ccc(CC(=O)Nc2ccn(Cc3ccc(F)cn3)n2)cc1` [Example 106, N-[1-(5-Fluoro-pyridin-2-ylmethyl)-1H-pyrazol-3-yl]-2-(4-isopropyl-phenyl)-acetamide], the half-inhibitory concentration (IC50) was 0.015 µM.

`CC(C)c1ccc(CC(=O)Nc2ccn(Cc3ccc(N(C)C)cn3)n2)cc1` [Example 107, N-[1-(5-Dimethylamino-pyridin-2-ylmethyl)-1H-pyrazol-3-yl]-2-(4-isopropyl-phenyl)-acetamide]: the 50% inhibitory concentration (IC50) worked out at 0.338 µM. Consider `CC(C)c1ccc(CC(=O)Nc2ccn(Cc3ccc(N4CC[C@H](F)C4)cn3)n2)cc1` [Example 108, N-{1-[5-((S)-3-Fluoro-pyrrolidin-1-yl)-pyridin-2-ylmethyl]-1H-pyrazol-3-yl}-2-(4-isopropyl-phenyl)-acetamide], for which the IC50 worked out at 0.322 µM.

In the case of `CC(C)c1ccc(CC(=O)Nc2ccn(Cc3ccc(C(F)(F)F)cn3)n2)cc1` [Example 109, 2-(4-Isopropyl-phenyl)-N-[1-(5-trifluoromethyl-pyridin-2-ylmethyl)-1H-pyrazol-3-yl]-acetamide], the concentration for half-maximal inhibition (IC50) was determined as 0.022 µM. `CC(C)c1ccc(CC(=O)Nc2ccn(Cc3ccc(C#N)c(Cl)n3)n2)cc1` [Example 110, N-[1-(6-Chloro-5-cyano-pyridin-2-ylmethyl)-1H-pyrazol-3-yl]-2-(4-isopropyl-phenyl)-acetamide]: the IC50 was 0.014 µM. The result for `N#Cc1ccc(Cn2ccc(NC(=O)Cc3ccc(N4CCC4)nc3)n2)cc1` [Example 111, 2-(6-Azetidin-1-yl-pyridin-3-yl)-N-[1-(4-cyano-benzyl)-1H-pyrazol-3-yl]-acetamide] reads 1.33 µM. Regarding `CCN(CC)c1ccc(CC(=O)Nc2ccn(Cc3ccc(OC)cc3)n2)cc1` [Example 112, 2-(4-Diethylamino-phenyl)-N-[1-(4-methoxy-benzyl)-1H-pyrazol-3-yl]-acetamide], the IC50 amounted to 0.021 µM. Take `CCN(CC)c1ccc(CC(=O)Nc2ccn(Cc3ccc(F)c(F)c3)n2)cc1` [Example 113, 2-(4-Diethylamino-phenyl)-N-[1-(3,4-difluoro-benzyl)-1H-pyrazol-3-yl]-acetamide]: the IC50 is 0.0048 µM.

Turning to `CCN(CC)c1ccc(CC(=O)Nc2ccn(Cc3ccc(C#N)cc3)n2)cc1` [Example 114, N-[1-(4-Cyano-benzyl)-1H-pyrazol-3-yl]-2-(4-diethylamino-phenyl)-acetamide], the IC50 came to 0.014 µM. As to `CCc1nc(Cn2ccc(NC(=O)Cc3ccc(C(C)C)cc3)n2)ccc1C#N` [Example 115, N-[1-(5-Cyano-6-ethyl-pyridin-2-ylmethyl)-1H-pyrazol-3-yl]-2-(4-isopropyl-phenyl)-acetamide], the concentration for half-maximal inhibition (IC50) came out at 0.057 µM. The result for `COc1nc(Cn2ccc(NC(=O)Cc3ccc(C(C)C)cc3)n2)ccc1C#N` [Example 116, N-[1-(5-Cyano-6-methoxy-pyridin-2-ylmethyl)-1H-pyrazol-3-yl]-2-(4-isopropyl-phenyl)-acetamide] reads 0.075 µM; that for `CC(C)c1ccc(CC(=O)Nc2ccn(Cc3ccc(C#N)c(OCC(F)(F)F)n3)n2)cc1` [Example 117, N-{1-[5-Cyano-6-(2,2,2-trifluoro-ethoxy)-pyridin-2-ylmethyl]-1H-pyrazol-3-yl}-2-(4-isopropyl-phenyl)-acetamide], 0.332 µM; that for `CC(C)Oc1nc(Cn2ccc(NC(=O)Cc3ccc(C(C)C)cc3)n2)ccc1C#N` [Example 118, N-[1-(5-Cyano-6-isopropoxy-pyridin-2-ylmethyl)-1H-pyrazol-3-yl]-2-(4-isopropyl-phenyl)-acetamide], 0.097 µM. For the molecule `N#Cc1ccc(Cn2ccc(NC(=O)Cc3ccc(N4CCC(F)(F)C4)nc3)n2)nc1` [Example 119, N-[1-(5-Cyano-pyridin-2-ylmethyl)-1H-pyrazol-3-yl]-2-[6-(3,3-difluoro-pyrrolidin-1-yl)-pyridin-3-yl]-acetamide], the half-inhibitory concentration (IC50) worked out at 0.137 µM. The result for `N#Cc1ccc(Cn2ccc(NC(=O)Cc3ccc(N4CCC(F)(F)C4)nc3)n2)cc1` [Example 121, N-[1-(4-Cyano-benzyl)-1H-pyrazol-3-yl]-2-[6-(3,3-difluoro-pyrrolidin-1-yl)-pyridin-3-yl]-acetamide] reads 0.068 µM; that for `O=C(Cc1ccc(N2CCC(F)(F)C2)nc1)Nc1ccn(Cc2ccc(F)cc2)n1` [Example 122, 2-[6-(3,3-Difluoro-pyrrolidin-1-yl)-pyridin-3-yl]-N-[1-(4-fluoro-benzyl)-1H-pyrazol-3-yl]-acetamide], 0.019 µM.

Usually IC50 stands for the concentration at which inhibition is half-maximal.

(Values after patent publication US9932314B2, “Pyrazole compounds and their use as T-type calcium channel blockers” (IDORSIA PHARMACEUTICALS LTD, priority 2015, dated 2018).)
